The test system of one data set is blood myeloid cells. Put plainly: Blood myeloid cells (CD11b+Gr1+) after 5-FU injection, flow cytometry. The format is in vivo, mouse. As to conditions: 150 mg/kg single injection, six days post-injection. The method, then:
It also had shown previously that global Acat1^−/− induces leukocytosis (Huang et al. 2013. Arterioscl. Thromb. Vasc. Biol. 33:2081-2087). Therefore, experiments were performed to compare the hematopoietic recovery of wild-type, global Acat1^−/−, and Acat1^−M/−M mice after injection of the myelo-suppressive agent 5-fluorouracil (5-FU; 150 mg/kg) (Lindner et al. 1960. Cancer Res. 20:497-502). Mice from all three genotypes (7-9 weeks of age) were administered a single 5-FU injection. After injection, blood myeloid cells (CD11b+Gr1+) isolated from these mice were monitored by flow cytometry. […] Six days post-injection, almost all of the myeloid cells in wild-type, Acat1^−/− and Acat1^−M/−M mice were depleted by 5-FU.

The test system of the next data set is ACAT2. As to conditions: cited from earlier work.
Data set [1] concerns cholesteryl ester synthesis in peritoneal macrophages. The data set is described as follows: 3H-oleate incorporation into cholesteryl esters in peritoneal macrophages. Particulars: 5 μM, 16 hours, agLDL, macrophages from wild-type or LyzCre+/+ mice. In kind it is cell-based, mouse. The method, then: Peritoneal macrophages were isolated as previously described (Sakashita et al. 2010. J. Lipid Res. 51:1263-1272), four days after injecting 1 ml of thioglycolate (TG) (3% wt/vol; Sigma Chemical Co.). Peritoneal leukocytes were isolated and incubated in 6-well culture dishes with 2 ml/well DMEM medium with 10% FBS at 37° C. for two hours. After washing with PBS two times, the firmly attached macrophages were used to measure ACAT1 mRNA and protein level.
Experiments were then performed to confirm that ACAT1 was specifically deleted in macrophages of the Acat1^−M/−M mouse. Peritoneal macrophages were isolated from Acat1^−M/−M and Acat1+^M/+M mice four days after thioglycolate injection. The cells were incubated with aggregated LDL (agLDL), an agent known to provide large amount of cholesterol to macrophages (Khoo et al. 1988. Arteriosclerosis 8:348-358), with or without an ACAT inhibitor at a saturating concentration (Compound F12511; at 5 μM) (Chang et al. 2000. J. Biol. Chem. 275:28083-28092), for 16 hours, followed by ^3H-oleate incorporation to measure the biosynthesis of labeled cholesteryl esters. […] Next, ACAT1 mRNA and protein content were measured in wild-type and Acat1^−M/−M macrophages. […] In wild-type mice, ACAT1 is abundantly expressed in the adrenal glands.

The subject of another data set is ACAT1. Particulars: cited from earlier work.
A further data set deals with T1, hACAT-2 (Homo sapiens, UniProt O75908).
T1 sequence (O75908 1-522): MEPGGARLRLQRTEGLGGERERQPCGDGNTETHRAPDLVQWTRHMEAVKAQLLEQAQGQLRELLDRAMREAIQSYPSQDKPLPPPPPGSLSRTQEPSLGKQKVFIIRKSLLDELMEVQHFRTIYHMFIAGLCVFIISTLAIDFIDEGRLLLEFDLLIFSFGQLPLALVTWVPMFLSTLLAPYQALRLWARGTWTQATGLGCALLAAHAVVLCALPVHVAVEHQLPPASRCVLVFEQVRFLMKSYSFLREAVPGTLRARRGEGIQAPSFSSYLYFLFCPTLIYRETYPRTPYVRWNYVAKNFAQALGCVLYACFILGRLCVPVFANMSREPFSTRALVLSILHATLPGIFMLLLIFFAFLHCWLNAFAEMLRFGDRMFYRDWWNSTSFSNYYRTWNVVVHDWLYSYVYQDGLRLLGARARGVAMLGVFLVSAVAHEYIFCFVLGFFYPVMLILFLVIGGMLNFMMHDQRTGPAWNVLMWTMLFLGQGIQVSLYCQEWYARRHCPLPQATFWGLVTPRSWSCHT
Particulars: cited from earlier work.

A further data set has as its system mouse ACAT1. The data set is described as follows: ACAT1 protein by western blot in transfected NIH-3T3 mouse fibroblasts. In kind it is cell-based. As to conditions: NIH-3T3, rAAV vector transfection, 48 hours, GFP-positive cells. The text has this: NIH-3T3 mouse fibroblasts were transiently transfected with one of several rAAV vectors encoding EmGFP and microRNA (miR) #52, #53, #54 or #55. Forty-eight hours post-transfection, GFP-positive cells were harvested by FACS. GFP-positive cells were washed then lysed in 10% SDS and syringe homogenized. Twenty microgram of protein per sample was subjected to SDS-PAGE. After western blot analysis, bands were quantified with ImageJ. ACAT1 intensity was normalized to GAPDH as a loading control and expressed as relative intensity.
Four different siRNA molecules (#52-#55; Table 3) targeting the mouse Acat1 gene were inserted into an endogenous mouse microRNA (miR) scaffold using Invitrogen's RNAi design tool. The artificial miRs were ligated into the mammalian expression vector pcDNA6.2-GW/EmGFP-miR. […] The miRs were delivered to the cells using a standard cDNA transfection protocol.

pIC50: −log10 of the molar value.

`O=c1[nH]cc(F)c(=O)[nH]1` [5-FU, 5-fluorouracil]: in the data set with blood myeloid cells, the “depletion of blood myeloid cells” value is “almost all”.

`CC(C)c1cccc(C(C)C)c1NC(=O)CC(=O)C(Cc1ccccc1)Cc1ccc(O)cc1` (stereo not shown) [Compound 1B]: the pIC50 in the data set on ACAT2 is 5.82.

`CC(C)c1cccc(C(C)C)c1NC(=O)CC(=O)C(Cc1ccccc1)Cc1ccc(OC(=O)CCCCCCN2CCCCCC2=O)cc1` (stereo not shown) [Compound 1C]: in the data set with ACAT2, the pIC50 is 6.28.

Turning to `CCCCCCCCCCCCS[C@H](C(=O)Nc1cc(C)c(O)c(C)c1C)c1ccccc1` [Eflucimibe (F12511)], the “cholesteryl ester synthesis rate” value in data set [1] is on record as “drastically reduced”. The pIC50 with ACAT2 was 6.96.

As to `CCCCCCCC(=O)Nc1ccccc1-c1ccccc1` [compound 1], the pIC50 in the data set with ACAT2 is 3.64.

As for `CCCCCCCCC(=O)Nc1ccccc1-c1ccccc1` [compound 2], in the data set on ACAT2, the pIC50 is 3.38.

For the compound `CCCCCCCC(=O)Nc1cc(-c2ccccc2)nn1-c1ccccc1` [compound 13], in the data set on ACAT2, the negative-log IC50 (pIC50) is 4.28.

Take `CCCCCCCCC(=O)Nc1cc(-c2ccccc2)nn1-c1ccccc1` [compound 14]: the negative-log IC50 (pIC50) in the data set on ACAT2 was 4.12.

With `CCCCCCCCCNc1cc(-c2ccccc2)nn1-c1ccccc1` [compound 16], the pIC50 with ACAT2 is 4.01.

Take `CCOC(=O)OC(=O)OCC` [diethyl pyrocarbonate]: the negative-log IC50 (pIC50) with ACAT1 is 4.36; in the data set with ACAT2, 3.77. Further, the “greater activity on ACAT1 compared to ACAT-2” value in the data set on ACAT1 is recorded as 4 fold.

Regarding `COc1ccc([C@@H](O)[C@@H](C)Oc2ccc([C@H]3O[C@H](c4ccc(O[C@H](C)[C@H](O)c5ccc6c(c5)OCO6)c(OC)c4)[C@H](C)[C@H]3C)cc2OC)cc1OC` [manassantin B], on hACAT-2 (at 1 mM), the “inhibition of hACAT-2” value is reported as 32%.

As for “miR Negative Control: negative control miR 5′-TACTGCGCGTGGAGACG-3′ (SEQ ID NO:17), matches no known vertebrate gene (chemistry not given here)”, the “Relative Intensity (ACAT1 normalized to GAPDH)” value in the data set with mouse ACAT1 is given as 1.02.

Take saucerneol B: at hACAT-2, the negative logarithm of the IC50 (pIC50) is 3.91.

The record behind these values is US9856478B2, “Method for selectively inhibiting ACAT1 in the treatment of obesity, metabolic syndrome, and atherosclerosis” (Trustees of Dartmouth College, priority 2013, dated 2018).
